Data taken from US10807985B2 (Blueprint Medicines Corporation, priority 2013, dated 2020).
“Also recorded” adds a separate entry of the source.

Assays:
[1] = target: KIT D816V kinase activity (KIT autophosphorylation at tyrosine 719) in HMC1.2 cells (Homo sapiens (Human), UniProt P10721, D816V/V560G); experiment: HMC1.2 autophosphorylation assay (phospho-Y719 c-KIT AlphaLISA); format: cell-based; settings: HMC1.2 mast cell leukemia cell line (KIT V560G, D816V), 90 minutes compound; read-out: INH-KIT-PHOS-HMC1.2
Sequence of KIT D816V kinase activity (KIT autophosphorylation at tyrosine 719) in HMC1.2 cells (P10721 26-976 V560G/D816V): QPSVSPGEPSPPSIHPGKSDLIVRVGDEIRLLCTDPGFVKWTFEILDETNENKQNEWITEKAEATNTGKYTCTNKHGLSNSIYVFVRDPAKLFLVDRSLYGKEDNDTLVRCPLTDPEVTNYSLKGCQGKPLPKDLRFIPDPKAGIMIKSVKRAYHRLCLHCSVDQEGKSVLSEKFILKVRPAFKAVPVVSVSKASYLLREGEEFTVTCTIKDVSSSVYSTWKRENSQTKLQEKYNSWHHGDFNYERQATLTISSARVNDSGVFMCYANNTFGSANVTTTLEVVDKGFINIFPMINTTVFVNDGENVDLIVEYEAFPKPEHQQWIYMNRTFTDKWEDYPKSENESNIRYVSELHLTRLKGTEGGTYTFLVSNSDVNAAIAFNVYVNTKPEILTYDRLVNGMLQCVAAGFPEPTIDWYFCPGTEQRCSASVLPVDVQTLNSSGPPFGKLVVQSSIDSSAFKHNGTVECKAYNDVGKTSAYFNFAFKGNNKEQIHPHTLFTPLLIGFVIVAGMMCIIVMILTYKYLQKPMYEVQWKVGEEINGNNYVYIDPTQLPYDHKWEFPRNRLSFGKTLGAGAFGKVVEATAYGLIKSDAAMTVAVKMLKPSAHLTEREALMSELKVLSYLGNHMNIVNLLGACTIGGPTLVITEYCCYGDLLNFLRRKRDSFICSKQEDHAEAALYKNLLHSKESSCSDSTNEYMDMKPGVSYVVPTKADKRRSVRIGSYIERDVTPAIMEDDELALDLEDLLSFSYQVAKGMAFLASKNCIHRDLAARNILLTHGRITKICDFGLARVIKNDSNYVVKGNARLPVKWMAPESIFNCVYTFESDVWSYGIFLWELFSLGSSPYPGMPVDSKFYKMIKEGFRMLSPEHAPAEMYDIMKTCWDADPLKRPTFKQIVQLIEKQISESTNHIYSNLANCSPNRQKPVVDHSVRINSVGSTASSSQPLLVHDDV

[2] = mouse, in vivo
[3] = target: D816V KIT (Homo sapiens (Human), UniProt P10721, D816V); experiment: KIT D816V assay at Km (Caliper electrophoretic mobility shift); settings: biochemical, 15 uM ATP (Km), 90 minutes at 25 C; read-out: INH KIT D816V
Sequence of D816V KIT (P10721 26-976 D816V): as the sequence (P10721 26-976 V560G/D816V) above, with G535V counted along it

[4] = Body weight changes in the tumor bearing mice (P815 xenograft); settings: Compound 46 3-100 mg/kg p.o. QD × 10, even at the higher doses
[5] = target: PDGFRA D842V (Homo sapiens (Human), UniProt P16234, D842V); experiment: PDGFRA D842V assay at Km (Caliper electrophoretic mobility shift); settings: biochemical, 15 uM ATP (Km), 90 minutes at 25 C; read-out: INH PDFGRA D842V
Sequence of PDGFRA D842V (P16234 24-1089 D842V): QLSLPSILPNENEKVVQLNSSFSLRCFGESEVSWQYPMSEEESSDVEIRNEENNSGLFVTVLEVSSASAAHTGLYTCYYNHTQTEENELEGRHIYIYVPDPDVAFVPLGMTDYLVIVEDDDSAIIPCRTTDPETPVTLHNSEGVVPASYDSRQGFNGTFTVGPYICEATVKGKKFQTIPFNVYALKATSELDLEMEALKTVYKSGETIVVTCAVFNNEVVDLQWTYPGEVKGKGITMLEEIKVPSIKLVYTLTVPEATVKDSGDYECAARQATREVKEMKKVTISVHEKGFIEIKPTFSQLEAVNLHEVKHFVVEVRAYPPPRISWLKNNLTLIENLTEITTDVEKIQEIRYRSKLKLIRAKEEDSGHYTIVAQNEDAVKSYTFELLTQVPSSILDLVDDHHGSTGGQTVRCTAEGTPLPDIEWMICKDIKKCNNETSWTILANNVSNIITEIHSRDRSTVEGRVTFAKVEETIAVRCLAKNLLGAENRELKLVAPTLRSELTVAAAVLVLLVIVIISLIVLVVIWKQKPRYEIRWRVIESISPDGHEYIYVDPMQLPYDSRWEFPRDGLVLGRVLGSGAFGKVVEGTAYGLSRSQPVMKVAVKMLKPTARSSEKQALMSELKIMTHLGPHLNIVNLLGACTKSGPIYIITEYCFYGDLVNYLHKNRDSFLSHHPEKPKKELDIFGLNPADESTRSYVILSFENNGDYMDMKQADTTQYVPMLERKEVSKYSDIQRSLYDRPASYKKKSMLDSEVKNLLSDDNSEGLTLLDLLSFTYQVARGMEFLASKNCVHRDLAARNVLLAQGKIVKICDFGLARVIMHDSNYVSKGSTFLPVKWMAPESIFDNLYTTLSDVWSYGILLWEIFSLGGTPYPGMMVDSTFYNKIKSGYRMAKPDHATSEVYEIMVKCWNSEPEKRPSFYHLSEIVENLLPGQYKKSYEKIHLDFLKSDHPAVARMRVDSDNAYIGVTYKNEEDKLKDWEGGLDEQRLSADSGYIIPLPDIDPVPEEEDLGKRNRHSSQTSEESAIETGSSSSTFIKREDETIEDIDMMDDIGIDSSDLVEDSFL

[6] = system: P815 tumor cells; experiment: P815 mastocytoma xenograft model, tumor growth; format: in vivo, mouse; settings: P815 xenograft in female BALB/c nude mice; 3, 10, 30, 100 mg/kg p.o. QD × 10
Procedure: Compound 46 and Dasatinib were evaluated in a P815 mastocytoma xenograft model. P815 tumor cells (ATCC, Manassas, Va., cat # ATCC® TIB-64) were maintained in vitro as a suspension and monolayer culture in RPMI1640 medium supplemented with 10% fetal calf serum at 37° C. in an atmosphere of 5% CO2 in air. The tumor cells were sub-cultured twice weekly by trypsin-EDTA treatment. The cells growing in an exponential growth phase were harvested and counted for tumor inoculation.
Tumor sizes were measured every other day in two dimensions using a caliper, and the volume was expressed in mm^3 using the formula: V=0.5 a×b^2 where a and b were the long and short diameters of the tumor, respectively. […] T-C was calculated with T as the median time (in days) required for the treatment group tumors to reach a predetermined size (e.g., 1000 mm^3), and C as the median time (in days) for the control group tumors to reach the same size. […]
TGI was calculated for each group using the formula: TGI (%)=[1−(Ti−T0)/(Vi−V0)]×100; Ti is the average tumor volume of a treatment group on a given day, T0 is the average tumor volume of the treatment group on the day of treatment start, Vi is the average tumor volume of the vehicle control group on the same day with Ti, and V0 is the average tumor volume of the vehicle group on the day of treatment start. Tumor weight was measured at the endpoint. […]

## Cn1cc(-c2cc3c(N4CCN(c5ncc([C@@](C)(O)c6ccc(F)cc6)cn5)CC4)ncnn3c2)cn1 [Compound 46]
[1]
  IC50: < 50 nM
[2]
  tolerability: well tolerated
[3]
  IC50: < 1 nM
[4]
  body weight change: less than 5%
[5]
  IC50: < 1 nM
[6]
  tumor growth inhibition: effective in inhibiting tumor growth; also recorded: observable antitumor activity
